Experimental data as given in a melting point compilation (Tetko et al.; mined from patent text by program, amines drawn as free bases though some values may be those of a salt).

`CN1CCN(c2cccc3c2C[C@H](NC(=O)c2ccc(Cc4ccccc4)cc2)CC3)CC1` gave a melting point of 191 to 192 °C. `Cc1oc(-c2ccccc2)nc1CCOc1ccc(C[C@@H](C(=O)O)N2CCN(S(=O)(=O)c3ccccc3[N+](=O)[O-])CC2)cc1` showed a melting point of 171 to 173 °C. For `O=C(O)Cn1c(-c2ccc(Cl)cc2)nc2ccc(Cl)nc21`, the melting point was greater than 250 °C. Work on `NC(=NCC(F)(F)F)Nc1nc(CCCCNc2ncccn2)cs1` yielded a melting point of 173 to 175 °C. `CCOC(=O)C1CN(CC)c2nc3cc(F)c(F)cc3cc2C1=O` (stereo not given) showed a melting point of 152 °C. Compound `c1ccc(C(c2ccccc2)N2CCC2)cc1` has a melting point of 107 to 109 °C. In the case of `CCCc1nnc(Cc2ccc(NC(=O)/C=C/c3cnn(C)c3-c3ccc(F)cc3)cc2)o1`, the melting point was 154 to 155 °C. With `Ic1ccc(N(c2ccccc2)c2ccccc2)cc1` the melting point was 102 to 104 °C. For `COc1ccc(C=C2N=C(c3ccc([N+](=O)[O-])cc3)OC2=O)cc1OC`, the melting point was 265 to 267 °C. Compound `O=C(O)C1CCc2c(n(C(=O)c3ccccc3)c3ccc(Cl)cc23)C1` (stereo not given) has a melting point of 196 to 197 °C. For `CCCCNC(=O)Nc1ccc(C)cc1`, the melting point was 118 to 119 °C. Compound `CC(C)(C)C(=O)OC(COc1cccc2[nH]ccc12)CN1CCC(COc2ccccc2)CC1` (stereo not given) has a melting point of 103 to 105 °C. Compound `CCOc1ccc(CC2NCCc3cc(OC(C)C)c(OC(C)C)cc32)cc1OCC` (stereo not given) has a melting point of 76 to 80 °C. `Cc1nc(NCCc2ccccc2)sc1-c1ccnc(Nc2ccc(N3CCN(Cc4ccccc4)CC3)cc2)n1` gave a melting point of 191 to 192 °C. `CCCCNC(=O)c1ccc(N2CCN(c3ccncc3)CC2)cc1` gave a melting point of 172 to 174 °C. In the case of `Cc1c(C#N)sc2nc(-c3ccc(Cl)cc3)nc(N3CCN(C)CC3)c12`, the melting point was 209 to 210 °C. For `O=C1N=NC(=O)c2c1[nH]c1c(Cl)cccc21`, the melting point was greater than 250 °C. For `CC(=O)N1CCCC(=O)c2c(Cl)cccc2CCC1=O`, the melting point was 115 to 116 °C. Compound `CC(=O)Nc1c(C(=O)C2CCCC(C)C2)[nH]c2cc(Cl)ccc12` (stereo not given) has a melting point of 202 to 203 °C. Work on `CCc1ccccc1NC(=O)c1ccccc1CN1C(=O)C2(COc3cc4c(cc32)CCO4)c2ccccc21` (stereo not given) yielded a melting point of 184 to 186 °C. Compound `C[C@]12CCC(=O)N[C@@H]1CCc1cc(Sc3ccccc3F)ccc12` has a melting point of 196 to 198 °C. With `CCOc1cc(OC)cc(O)c1C(=O)C=Cc1ccc(OC)cc1` the melting point was 124 °C. For `CCOC(=O)C(=O)Nc1cc(Cl)c(Cl)c(Cl)c1[N+](=O)[O-]`, the melting point was 84 °C. For `CC(CN1CCCC1)Oc1ccccc1CC(=O)N1CC2C(C1)C(c1ccccc1)(c1ccccc1)CCS2=O` (racemic), the melting point was 126 °C. With `Nc1cc(C(F)(F)F)nc(C(=O)O)c1Cl` the melting point was 131 to 133 °C. `CCNC(=O)c1ccc(N2CCN(Cc3ccc4c(c3)NC(=O)C(C)O4)CC2)cc1` (stereo not given) gave a melting point of 250 to 256 °C. For `CC(C)C1NC(=O)CN1C(=O)CN` (stereo not given), the melting point was 141 to 143 °C. `c1ccc2c(c1)CN(NC1=NCCO1)C2` showed a melting point of 220 to 223 °C. Work on `Cc1nc(C)c(C(=O)CBr)[nH]1` yielded a melting point of 128 to 132 °C. Work on `CNC(=O)c1ccc(F)c2c1CC(N(CCCc1c[nH]c3ccc(F)cc13)CC1CC1)CO2` (stereo not given) yielded a melting point of 120 °C. With `CSC(=Nc1nc(C)cc(C)n1)NS(=O)(=O)c1ccccc1-c1ccccc1` the melting point was 154 to 157 °C. Compound `COCc1c[nH]c2c([N+](=O)[O-])ccc(C)c2c1=O` has a melting point of 210 to 213 °C. Compound `CC(=O)Nc1c(C(=O)c2ccccc2)[nH]c2cc(C(F)(F)F)ccc12` has a melting point of 177 to 179 °C. `CC(C=CC1(O)C(C)=CC2(OCCO2)c2ccccc21)=CCO` (stereo not given) showed a melting point of 116 to 118 °C. With `O=S(=O)(c1ccccc1)c1ncc(C(F)(F)F)cc1F` the melting point was 82 to 83 °C. Compound `COc1cc2c(c(-c3cc(Cl)ccc3Cl)c1)OC(CN)C2` (stereo not given) has a melting point of 140 to 142 °C. `FCc1cccc(C#CCCn2nc3cc(F)c(F)cc3n2)n1` showed a melting point of 104 to 105 °C. Compound `CC(=O)OCC(C)C1=CCC2C3CC=C4CC(OC(C)=O)CCC4(C)C3CCC12C` (stereo not given) has a melting point of 116 to 117 °C. Compound `Nc1nc(OS(=O)(=O)Cl)nn1C(=O)Oc1ccccc1` has a melting point of 164 °C. In the case of `CC(C)(C)N1OC(c2ccccc2)(N2CCOCC2)c2cc(Cl)ccc21` (stereo not given), the melting point was 130 to 132 °C. In the case of `COc1ccc(C=Cc2cc(I)c(OC)c(OC)c2)cc1O`, the melting point was 92 to 94 °C. In the case of `C[C@@H]1CN(CCCn2c3ccccc3c3ccccc32)C[C@H](C)N1`, the melting point was 107 to 109 °C. Compound `CCCCCCCCCCCCCCCCCCNC(=O)Nc1ccc(O)cc1` has a melting point of 144 °C. For `CCCCCCCCCCCCCCC(C)(C(=O)O)C(=O)O`, the melting point was 83 to 85 °C. `OC1CSC(Oc2cc(-c3cccnc3)ccc2Cl)C(O)C1O` (stereo not given) gave a melting point of 172 °C. In the case of `C1=C(c2ccc3c(c2)OCO3)CCN(Cc2n[nH]c3ccccc23)C1`, the melting point was 139 to 141 °C. Compound `CC(=O)c1cc2c(s1)CCCc1cc(=O)n(-c3ccc(Cl)cc3)nc1-2` has a melting point of 164 to 166 °C. Work on `COc1ccc2c(n1)c(CCNC(C)=O)c1n2Cc2ccccc2-1` yielded a melting point of 96 to 97 °C. With `CC(C)N1C(=O)[C@@H](CCCC(=O)O)O[C@H](c2ccccc2Cl)c2cc(Cl)ccc21` (relative stereo) the melting point was 158 to 160 °C. In the case of `O=C(NC1CCCc2cc(C(=O)Nc3ccncc3)ccc21)OCc1ccccc1` (stereo not given), the melting point was 157 to 159 °C. In the case of `C[C@H](C=C[C@H](C)[C@H](C)CO)[C@H]1CC[C@H]2C3=CCC4CC(=O)CC[C@]4(C)[C@H]3CC[C@]12C` (stereo not given in full), the melting point was 192 to 193 °C. With `CNC(=O)NN(CC(=O)OC)c1ccccc1` the melting point was 122 °C. Compound `COCOc1ccc(C=CC(=O)C=Cc2ccc(OCOC)c(OC)c2)cc1OC` has a melting point of 81 to 82 °C. `CC(C)(Oc1ccc(Cl)cc1)C(=O)C(Oc1cccc(Cl)n1)n1cncn1` (stereo not given) showed a melting point of 100 °C. Work on `Cc1nc(NC(=O)c2ccccc2)sc1C(=O)NCc1ccccc1Cl` yielded a melting point of 191 to 193 °C. Compound `O=C(NCCO)c1cccc(-c2ccc3cnn(-c4ccc(Cl)cc4Cl)c3c2)c1` has a melting point of 191 to 192 °C. `CC(C)C[C@H](N)C(=O)NCCCCNC(=O)OCc1ccccc1` showed a melting point of 137 to 139 °C. With `Cc1ccc(S(=O)(=O)N2CCCC2c2ccc(F)c(F)c2)cc1` (racemic) the melting point was 127 °C. Compound `CC(C)(C)c1ccc(N2CCOCC2)c(NP(=O)(O)O)c1` has a melting point of 79 to 83 °C. Compound `COc1ccc(C2=NN(C3CCN(Cc4ccncc4)CC3)C(=O)[C@@H]3CC=CC[C@H]23)cc1OC` has a melting point of 196 to 197 °C. `CN=C=Nc1ccccc1N1CCOCC1` showed a melting point of 67 to 68 °C. `COc1cc(OC)nc(NC(=O)NS(=O)(=O)c2sc(Cl)c3c2C(=O)OCC3)n1` showed a melting point of 110 to 114 °C. `Cc1nc(C#N)c2n1-c1ccc(Cl)cc1C(c1ccccc1)=NC2` showed a melting point of 228 to 229 °C. `CC(=O)Oc1c(C2(OC(C)=O)C(=O)c3ccccc3C2=O)ccc(Cl)c1Cl` showed a melting point of 129 to 136 °C. `CC(C)c1cccc(C(C)C)c1NC(=O)NCC1(Nc2ccc(-c3ccccc3)cc2)CCCC1` showed a melting point of 198 °C. Work on `COc1ccc(-c2nc3cnncc3[nH]2)c(N(C)C)c1` yielded a melting point of 226 °C. In the case of `CC1(Cc2ccc(Cl)c(Cl)c2)OC(=O)N(Cc2cc(C(F)(F)F)cc(C(F)(F)F)c2)C1=O` (stereo not given), the melting point was 80 to 82 °C. `COc1cccc2cc(C3CCN(C)CC3)oc12` gave a melting point of 74 to 75 °C. `Cc1cc(C)n(-c2nccc(Nc3cccc(C(F)(F)F)c3)n2)n1` showed a melting point of 98.5 to 99.6 °C. Compound `O=S(=O)(Nc1cccc(C(=NO)c2cccnc2)c1)c1ccc(Cl)cc1` has a melting point of 170 °C. For `COc1ccccc1C1=Nc2ccc(C(=O)O)cc2C(=O)C1`, the melting point was 290 to 294 °C. With `COC(=O)c1ccc(Cl)cc1NC(=O)CSc1ccccc1Br` the melting point was 99 to 101 °C. For `CCOc1ncnc(OCC)c1NC(=S)NC(=O)c1ccccc1`, the melting point was 162 °C. `COc1cc(-c2cccs2)cc(OC)c1C=O` showed a melting point of 168 to 170 °C. Work on `COC(=O)NCCOc1ccc(Oc2ccc(F)cc2)cc1` yielded a melting point of 64 to 66 °C. `O=c1[nH]c(=O)n(C2CC(O)C(CO)O2)cc1-c1ccccn1` (stereo not given) gave a melting point of 201 to 203 °C. Work on `CC(=O)c1c(N2CCOCC2)nn2ccccc12` yielded a melting point of 164 °C. With `CC(=O)Nc1ccc2c3c(cccc13)S(=O)(=O)C(C)N2` (stereo not given) the melting point was 189 to 190 °C. With `OCC1OC(n2cnc3c(Nc4ccccc4Cl)ccnc32)C(O)C1O` (stereo not given) the melting point was 207 °C. With `CC1(C)CC(O)CC2(C)OC(=O)C=C12` (stereo not given) the melting point was 148 to 149 °C. For `CCc1ccc(C(=O)C2=C(O)C(=O)N(c3ccc(C)nn3)C2c2ccc(OC(F)(F)F)cc2)cc1` (stereo not given), the melting point was 263 to 267 °C. In the case of `CC1=C(c2ccncc2)SC(C)C(=O)N1` (stereo not given), the melting point was 144 to 146 °C. With `CN1CCC(OC2c3ccccc3CCn3c2nc(-c2ccc(C(=O)OC(C)(C)C)cc2)c3C#N)CC1` (stereo not given) the melting point was 95 °C. Work on `CCOC(=O)N1C=CC(c2c(-c3ccccc3)nc3ccc(Cl)nn23)C=N1` (stereo not given) yielded a melting point of 126 to 131 °C. In the case of `CN1CCN(c2ccc(S(=O)(=O)c3cccc(F)c3)c(N)c2)CC1`, the melting point was 89 to 92 °C. `CCC(CC)n1cc(Cl)nc(N2CCc3cc(Br)cc(Cl)c32)c1=O` gave a melting point of 156 to 157 °C. Work on `Cc1cc2nc3ccc(C#N)cn3c(=O)c2s1` yielded a melting point of 258 to 259 °C. `BrCc1cccc2cccc(CBr)c12` showed a melting point of 131 to 132 °C. In the case of `CS(=O)(=O)NC[C@@H]1CN(c2ccc(N3CCC(=CC#N)CC3)c(F)c2)C(=O)O1`, the melting point was 235 to 237 °C. Compound `O=C(O)CCC(NC(=O)C=Cc1ccco1)C(=O)O` (stereo not given) has a melting point of 166 to 170 °C. In the case of `CCc1nn2c(-c3ccc(Cl)cc3Cl)cccc2c1N(CC)CC`, the melting point was 118 to 121 °C. For `CCCc1cc2nc(=O)[nH]n2c(C)n1`, the melting point was 173 °C. `C=CCn1c(NCC(F)(F)F)nc(N2CCc3ccccc3CC2)c(C#N)c1=O` gave a melting point of 186 to 191 °C. `CN(C(=O)c1nn(-c2ccc(Cl)cc2Cl)c(-c2ccc(Cl)cc2)c1O)N1CCCCC1` gave a melting point of 118 °C. `CC(C)OP(=O)(OCN1C(=O)c2c(C(C)C)cc(OCC(=O)O)cc2S1(=O)=O)OC(C)C` gave a melting point of 118 to 125 °C. Compound `CCCN1C(=O)N2CCN=C2c2[nH]c(C3CCCC3)nc21` has a melting point of 215 to 216 °C. Compound `CC(C)Oc1ccc(F)c(N2C(=O)C3=C(CCCC3)C2=O)c1` has a melting point of 62.8 °C. `O=C(O)Cc1cn(C(=O)c2cccc(C(F)(F)F)c2)c2cc(Cl)ccc12` gave a melting point of 194 to 196 °C. With `CCOC(=O)c1nc2c(=O)[nH]c3cc(C(F)(F)F)ccc3n2c1Cn1ccnc1C` the melting point was greater than 250 °C. With `CC(C)(C)OC(=O)COc1ccc(NC(=O)NC(=O)c2ccc(C#N)nc2)cc1` the melting point was 220 to 222 °C.
